Test results: patent US20240350643A1, “PROTEIN DEGRADATION AGENT” (SUZHOU KINTOR PHARMACEUTICALS, INC., priority 2021, published 2024)

Columns and labels:
c-Myc protein = target: T1, c-Myc protein (Homo sapiens, UniProt P01106); assay: Ability of compounds to degrade c-Myc protein in HL60 cells (ELISA); type: cell-based; settings: HL-60, 1 μM compound, 24 h, read-out: HL60 cells Protein degradation rate (1 μM)
T1 construct: endogenous in cells; host or cells: HL60 cells

HL60 cells = assay: Anti-proliferation ability of compounds on HL60 cells (CTG); type: cell-based, human; settings: Homo sapiens, HL-60, 72 h, 3 days, CellTiter-Glo, read-out: HL60 cells Proliferation inhibitory activity
Method in brief: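 HL60 cells (20000/well) exposed to serially diluted compounds (0.1% DMSO vehicle control) for 3 days. Viability read by CellTiter-Glo luminescence; IC50 fitted from inhibition rates.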

T1 sequence (P01106 whole entry): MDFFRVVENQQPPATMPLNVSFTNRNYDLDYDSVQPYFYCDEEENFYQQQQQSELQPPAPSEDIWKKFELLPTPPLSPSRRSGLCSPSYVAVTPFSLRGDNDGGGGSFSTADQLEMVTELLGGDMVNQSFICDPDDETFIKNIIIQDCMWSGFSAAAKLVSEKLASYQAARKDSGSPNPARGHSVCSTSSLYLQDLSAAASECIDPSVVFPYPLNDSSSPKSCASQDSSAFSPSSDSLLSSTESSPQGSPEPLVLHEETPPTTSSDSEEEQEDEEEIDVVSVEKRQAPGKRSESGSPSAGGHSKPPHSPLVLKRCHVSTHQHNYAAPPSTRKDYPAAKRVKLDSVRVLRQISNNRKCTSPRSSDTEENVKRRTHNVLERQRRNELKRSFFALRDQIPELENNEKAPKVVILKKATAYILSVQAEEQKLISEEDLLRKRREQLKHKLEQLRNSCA

SMILES | inhibition at 1 µM (c-Myc protein) [%] | IC50 (HL60 cells) [nM]
O=C(Cn1c2ccccc2c2cccnc21)NCc1ccc(CCNC(=O)c2ccc3c(c2)C(=O)N(C2CCC(=O)NC2=O)C3=O)cc1 (centres unmarked) [A43] | 60 to 90 | 282 ± 27.5
O=C(Cn1c2ccccc2c2cccnc21)NCc1ccc(CNC(=O)c2ccc3c(c2)CN(C2CCC(=O)NC2=O)C3=O)cc1 (centres unmarked) [A153] | 60 to 90 | 0.5 ± 0.3
O=C(Cn1c2ccccc2c2cccnc21)NCc1ccc(CC(=O)Nc2ccc3c(c2)CN(C2CCC(=O)NC2=O)C3=O)cc1 (centres unmarked) [A171] | 60 to 90 | 0.3 ± 0.2
CN(CCn1c2ccccc2c2cccnc21)Cc1ccc(CNC(=O)c2ccc3c(c2)C(=O)N(C2CCC(=O)NC2=O)C3=O)cc1 (centres unmarked) [A84] | 60 to 90 | 13.1 ± 6.2
CC(=O)N(CCn1c2ccccc2c2cccnc21)Cc1ccc(CNC(=O)c2ccc3c(c2)C(=O)N(C2CCC(=O)NC2=O)C3=O)cc1 (centres unmarked) [A82] | 60 to 90 | < 3
O=C(Cc1c(F)ccc2ccccc12)NCc1ccc(CNC(=O)c2ccc3c(c2)C(=O)N(C2CCC(=O)NC2=O)C3=O)cc1 (centres unmarked) [A35] | 60 to 90 | 10.9 ± 4.8
CC(C)C(=O)N(CCc1cccc2ccccc12)Cc1ccc(CNC(=O)c2ccc3c(c2)C(=O)N(C2CCC(=O)NC2=O)C3=O)cc1 (centres unmarked) [A80] | 60 to 90 | < 3
O=C1CCC(N2C(=O)c3ccc(C(=O)NCc4ccc(CN(CCc5cccc6ccccc56)C5CC5)cc4)cc3C2=O)C(=O)N1 (centres unmarked) [A88] | 60 to 90 | 83.1
NCC(=O)OCN1C(=O)CCC(N2Cc3cc(C(=O)NCc4ccc(CNC(=O)Cn5c6ccccc6c6cccnc65)cc4)ccc3C2=O)C1=O (centres unmarked) [A227] | 30 to 60 | 0.6 ± 0.1
CS(=O)(=O)N(CCc1cccc2ccccc12)Cc1ccc(CNC(=O)c2ccc3c(c2)C(=O)N(C2CCC(=O)NC2=O)C3=O)cc1 (centres unmarked) [A77] | 60 to 90 | 73.4
COCCN(CCc1cccc2ccccc12)Cc1ccc(CNC(=O)c2ccc3c(c2)C(=O)N(C2CCC(=O)NC2=O)C3=O)cc1 (centres unmarked) [A90] | 60 to 90 | < 3
O=C(CCn1c2ccccc2c2ccccc21)NCCCCCCNC(=O)c1ccc2c(c1)C(=O)N(C1CCC(=O)NC1=O)C2=O (centres unmarked) [A13] | 10 to 30 | 1270 ± 51
O=C(Cn1c2ccccc2c2cccnc21)NCc1ccc(C2(NC(=O)c3ccc4c(c3)C(=O)N(C3CCC(=O)NC3=O)C4=O)CC2)cc1 (centres unmarked) [A138] | 60 to 90 | 12.4 ± 4.4
CC(C)(C)OC(=O)NC[C@H]1CC[C@H](CNc2ccc3c(c2)C(=O)N(C2CCC(=O)NC2=O)C3=O)CC1 (some centres unmarked) [A28] | 60 to 90 | 5060 ± 137
O=C(Cn1c2ccccc2c2cccnc21)NCCCCCCNC(=O)c1ccc2c(c1)C(=O)N(C1CCC(=O)NC1=O)C2=O (centres unmarked) [A2] | 30 to 60 | 50.7 ± 11.4
O=C(Cc1cccc2ccccc12)NC[C@H]1CC[C@H](CNc2ccc3c(c2)C(=O)N(C2CCC(=O)NC2=O)C3=O)CC1 (some centres unmarked) [A27] | 10 to 30 | 6800 ± 1540
CS(=O)(=O)N(CCn1c2ccccc2c2cccnc21)Cc1ccc(CNC(=O)c2ccc3c(c2)C(=O)N(C2CCC(=O)NC2=O)C3=O)cc1 (centres unmarked) [A78] | 60 to 90 | 4.6
O=C(Cc1nccc2ccccc12)NCc1ccc(CNC(=O)c2ccc3c(c2)CN(C2CCC(=O)NC2=O)C3=O)c(F)c1 (centres unmarked) [A158] | 30 to 60 | 3.3 ± 0.3
CN(CCc1cccc2ccccc12)C1(c2ccc(CNC(=O)c3ccc4c(c3)C(=O)N(C3CCC(=O)NC3=O)C4=O)cc2)CC1 (centres unmarked) [A143] | 60 to 90 | 22.9 ± 3
CC(C)(NC(=O)Cn1c2ccccc2c2cccnc21)c1ccc(CNC(=O)c2ccc3c(c2)C(=O)N(C2CCC(=O)NC2=O)C3=O)cc1 (centres unmarked) [A150] | 60 to 90 | 7.2 ± 1

SMILES | inhibition at 1 µM (c-Myc protein) [%] | IC50 (HL60 cells) [nM]
O=C1CCC(N2C(=O)c3ccc(CCCCCCC(=O)N(Cc4ccccc4)Cc4ccccc4)cc3C2=O)C(=O)N1 (centres unmarked) [A21] | 10 to 30 | 178 ± 68.4
O=C1CCC(N2C(=O)c3ccc(C(=O)NC[C@H]4CC[C@H](CNC(=O)Nc5cccc6cnccc56)CC4)cc3C2=O)C(=O)N1 (some centres unmarked) [A49] | 60 to 90 | 6820 ± 1630
O=C1CCC(N2Cc3cc(NC(=O)C[C@H]4CC[C@H](NC(=O)NCc5cccc6ccccc56)CC4)ccc3C2=O)C(=O)N1 (some centres unmarked) [A199] | 60 to 90 | 3.3 ± 0.6
O=C(Cc1cccc2cccnc12)NCc1ccc(CC(=O)Nc2ccc3c(c2)CN(C2CCC(=O)NC2=O)C3=O)cc1 (centres unmarked) [A173] | 60 to 90 | < 3
O=C(Cc1cccc2ccccc12)NCc1ccc(CCNC(=O)c2ccc3c(c2)C(=O)N(C2CCC(=O)NC2=O)C3=O)cc1 (centres unmarked) [A42] | 60 to 90 | 3640 ± 895
O=C1CCC(N2C(=O)c3ccc(CNCc4ccc(C(=O)NCCc5cccc6ccccc56)cc4)cc3C2=O)C(=O)N1 (centres unmarked) [A179] | 60 to 90 | 14 ± 4.1
CC(C)N(CCc1cccc(Cl)c1Cl)Cc1ccc(CNC(=O)c2ccc3c(c2)C(=O)N(C2CCC(=O)NC2=O)C3=O)cc1 (centres unmarked) [A87] | 60 to 90 | 11.5
O=C(Cn1c2ccccc2c2ccccc21)NCCCCCCNC(=O)c1ccc2c(c1)C(=O)N(C1CCC(=O)NC1=O)C2=O (centres unmarked) [A1] | 30 to 60 | 335 ± 83.1
CN(CCn1c2ccccc2c2cccnc21)Cc1ccc(CNC(=O)c2ccc3c(c2)C(=O)N(C2CCC(=O)NC2=O)C3=O)c(F)c1 (centres unmarked) [A106] | 60 to 90 | 4.2
O=C(CN1c2ccccc2Oc2ccccc21)NCCCCCCNC(=O)c1ccc2c(c1)C(=O)N(C1CCC(=O)NC1=O)C2=O (centres unmarked) [A7] | 30 to 60 | 320 ± 38
CN(CCn1c2ccccc2c2cccnc21)Cc1ccc(CNC(=O)c2ccc3c(c2)C(=O)N(C2CCC(=O)NC2=O)C3=O)cc1C(F)(F)F (centres unmarked) [A123] | 60 to 90 | 35.2 ± 9.3
O=C(Cn1c2ccccc2c2cccnc21)NCc1ccc(CNC(=O)c2ccc3c(c2)CN(C2CCC(=O)NC2=O)C3=O)c(F)c1 (centres unmarked) [A157] | 60 to 90 | 0.5 ± 0.1
O=C(Cc1ccccc1C(F)(F)F)NCc1ccc(CNC(=O)c2ccc3c(c2)C(=O)N(C2CCC(=O)NC2=O)C3=O)cc1 (centres unmarked) [A67] | 60 to 90 | 1070 ± 617
O=C(Cn1c2ccccc2c2cccnc21)NCc1ccc(CNC(=O)c2ccc3c(c2)C(=O)N(C2CCC(=O)NC2=O)C3=O)cc1 (centres unmarked) [A30] | 60 to 90 | 18 ± 11.5
O=C(CCc1ccccc1Cl)NCc1ccc(CNC(=O)c2ccc3c(c2)C(=O)N(C2CCC(=O)NC2=O)C3=O)cc1 (centres unmarked) [A62] | 60 to 90 | 320 ± 17.6
O=C(Cn1c2ccccc2c2cccnc21)NCc1cccc(CNC(=O)c2ccc3c(c2)C(=O)N(C2CCC(=O)NC2=O)C3=O)c1 (centres unmarked) [A38] | 30 to 60 | 66.2 ± 14.6
O=C(Cc1cccc2ccccc12)NCc1ccc(CNC(=O)c2ccc3c(c2)C(=O)N(C2CCC(=O)NC2=O)C3=O)c(F)c1 (centres unmarked) [A103] | 60 to 90 | 5.8 ± 2.5
O=C(Cc1cccc2ccccc12)NCCc1ccc(NC(=O)c2ccc3c(c2)C(=O)N(C2CCC(=O)NC2=O)C3=O)cc1 (centres unmarked) [A39] | 60 to 90 | 979 ± 80.2
O=C(Cn1c2ccccc2c2cccnc21)NCc1ccc(CNC(=O)c2ccc3c(c2)C(=O)N(C2CCC(=O)NC2=O)C3=O)nc1 (centres unmarked) [A125] | 60 to 90 | 26.1 ± 2
O=C(Cc1cccc2ccccc12)NCCc1ccc(CNC(=O)c2ccc3c(c2)C(=O)N(C2CCC(=O)NC2=O)C3=O)cc1 (centres unmarked) [A40] | 60 to 90 | 306 ± 73.8
